In patent US7138361B2, “Herbicidal heterocycles” (E. I. du Pont de Nemours and Company, priority 2000, dated 2006):

How the values were obtained:
Assay type in all cases: in vivo
[1] = test system: woolly cupgrass (Eriochloa villosa); assay: Test C preemergence; conditions: for Plant response rating (0 to 100), Cupgrass, Woolly: visual evaluation after 12 to 14 days
Procedure, shortened: (§1)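 Seeds are planted and treated before emergence; for the postemergence test, plants at 1- to 4-leaf stage (2–18 cm) receive the same formulation, a solvent blend containing surfactant. Plants stay in the greenhouse 12–14 days, then response is scored visually from 0 (none) to 100 (complete control).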

corn (Zea mays) [2] = assay: Test C preemergence; conditions: for Plant response rating (0 to 100), Corn: visual evaluation after 12 to 14 days
Procedure, shortened: as §1

[3] = test system: yellow nutsedge (Cyperus esculentus); assay: Test C preemergence; conditions: for Plant response rating (0 to 100), Nutsedge: Rate 500 g/ha, visual evaluation after 12 to 14 days
Procedure, shortened: as §1

soybean (Glycine max) = assay: Test C preemergence; conditions: for Plant response rating (0 to 100), Soybean: Rate 500 g/ha, visual evaluation after 12 to 14 days
Procedure, shortened: as §1

[4] = test system: pigweed (Amaranthus retroflexus); assay: Test C preemergence; conditions: for Plant response rating (0 to 100), Pigweed: Rate 500 g/ha, visual evaluation after 12 to 14 days
Procedure, shortened: as §1

kochia (Kochia scoparia) = assay: Test C preemergence; conditions: for Plant response rating (0 to 100), Kochia: visual evaluation after 12 to 14 days
Procedure, shortened: as §1

[5] = test system: johnsongrass (Sorghum halepense); assay: Test C preemergence; conditions: for Plant response rating (0 to 100), Johnsongrass: visual evaluation after 12 to 14 days
Procedure, shortened: as §1

[6] = test system: lambsquarters (Chenopodium album); assay: Test C preemergence; conditions: for Plant response rating (0 to 100), Lambsquarters: Rate 500 g/ha, visual evaluation after 12 to 14 days
Procedure, shortened: as §1

Nightshade [7] = assay: Test C preemergence
[8] = test system: barnyardgrass (Echinochloa crus-galli); assay: Test B postemergence; conditions: 13 to 15 days
Procedure, shortened: (§2)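 Ratings on a 0 to 100 visual scale (100 complete control) compare treated plants with controls 13 to 15 days after application. Treatments were pre- or postemergence sprays of compound in non-phytotoxic solvent with surfactant.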

corn (Zea mays) [9] = assay: Test B postemergence; conditions: 13 to 15 days
Procedure, shortened: as §2

wild oat (Avena fatua) = assay: Test B postemergence; conditions: 13 to 15 days
Procedure, shortened: as §2

[10] = test system: wheat (Triticum aestivum); assay: Test B postemergence; conditions: 13 to 15 days
Procedure, shortened: as §2

[11] = test system: smallflower flatsedge (Cyperus difformis); assay: Test C flooded paddy test; conditions: for Flatsedge plant response rating: Flooded Paddy, scale 0 to 100, 0 no effect, 100 complete control; for Plant response rating, Flatsedge: flooded paddy test, scale 0 to 100 (0 no effect, 100 complete control)
Procedure, shortened: (§3)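 Greenhouse-maintained for 12 to 14 days after treatment, the paddy plants (2-leaf stage at application) were scored visually against controls. A score of 0 denotes no effect and a score of 100 denotes complete control.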

[12] = test system: barnyardgrass (Echinochloa crus-galli); assay: Test C flooded paddy test; conditions: for Barnyardgrass plant response rating: Flooded Paddy, scale 0 to 100, 0 no effect, 100 complete control; for Plant response rating, Barnyardgrass: flooded paddy test, scale 0 to 100 (0 no effect, 100 complete control)
Procedure, shortened: as §3

[13] = test system: duck salad (Heteranthera limosa); assay: Test C flooded paddy test; conditions: for Ducksalad plant response rating: Flooded Paddy, scale 0 to 100, 0 no effect, 100 complete control; for Plant response rating, Ducksalad: flooded paddy test, scale 0 to 100 (0 no effect, 100 complete control)
Procedure, shortened: as §3

rice (Oryza saliva) = assay: Test C flooded paddy test; conditions: for Rice plant response rating: Flooded Paddy, scale 0 to 100, 0 no effect, 100 complete control; for Plant response rating, Rice: flooded paddy test, scale 0 to 100 (0 no effect, 100 complete control)
Procedure, shortened: as §3

Sunflower = assay: Test C preemergence; conditions: scale 0 to 100, 0 no effect, 100 complete control
Nightshade [14] = assay: Test C preemergence; conditions: Rate 500 g/ha, visual evaluation after 12 to 14 days
[15] = Rate 125 g/ha, scale 0 to 100, 0 no effect, 100 complete control
[16] = preemergence, Rate 62 g/ha, scale 0 to 100
[17] = preemergence, Rate 250 g/ha, scale 0 to 100, 0 no effect, 100 complete control
[18] = Rate 250 g/ha, scale 0 to 100, 0 no effect, 100 complete control
[19] = Rate 125 g/ha, scale 0 (no effect) to 100 (complete control)
[20] = Rate 500 g/ha, scale 0 to 100, 0 is no effect, 100 is complete control
[21] = Rate 62 g/ha, scale 0 to 100, 0 no effect, 100 complete control
[22] = preemergence, Rate 31 g/ha, scale 0 to 100
[23] = preemergence, Rate 125 g/ha, scale 0 to 100, 0 no effect, 100 complete control

Compound: CCC(C)c1ccn(C2CCN(c3cccc(OC)c3)C2=O)n1 (centres unmarked) [Compound 95]
- Plant response rating, Cupgrass, Woolly [1, 15]: 100
- Plant response rating, Cupgrass, Woolly [1, 16]: 50
- Plant response rating (0 to 100), Cupgrass, Woolly ([1]; preemergence, Rate 500 g/ha): 100
- Plant response rating, Cupgrass, Woolly [1, 17]: 100
- Plant response rating, Corn (corn (Zea mays) [2]; [15]): 10
- Plant response rating, Corn (corn (Zea mays) [2]; [16]): 10
- Plant response rating (0 to 100), Corn (corn (Zea mays) [2]; preemergence, Rate 500 g/ha): 40
- Plant response rating, Corn (corn (Zea mays) [2]; [17]): 40
- Plant response rating, Nutsedge [3, 15]: 0
- Plant response rating, Nutsedge [3, 16]: 0
- Plant response rating (0 to 100), Nutsedge ([3]; preemergence): 70
- Plant response rating, Soybean (soybean (Glycine max); [15]): 0
- Plant response rating, Soybean (soybean (Glycine max); [16]): 0
- Plant response rating (0 to 100), Soybean (soybean (Glycine max); preemergence): 30
- Plant response rating, Soybean (soybean (Glycine max); [17]): 0
- Plant response rating, Pigweed [4, 15]: 0
- Plant response rating, Pigweed [4, 16]: 100
- Plant response rating (0 to 100), Pigweed ([4]; preemergence): 60
- Plant response rating, Pigweed [4, 17]: 0
- Plant response rating, Kochia (kochia (Kochia scoparia); [15]): 100
- Plant response rating, Kochia (kochia (Kochia scoparia); [16]): 100
- Plant response rating (0 to 100), Kochia (kochia (Kochia scoparia); preemergence, Rate 500 g/ha): 100
- Plant response rating, Kochia (kochia (Kochia scoparia); [17]): 100
- Plant response rating, Johnsongrass [5, 15]: 30
- Plant response rating, Johnsongrass [5, 16]: 30
- Plant response rating (0 to 100), Johnsongrass ([5]; preemergence, Rate 500 g/ha): 90
- Plant response rating, Johnsongrass [5, 17]: 60
- Plant response rating, Lambsquarters [6, 15]: 100
- Plant response rating, Lambsquarters [6, 16]: 100
- Plant response rating (0 to 100), Lambsquarters ([6]; preemergence): 100
- Plant response rating, Lambsquarters [6, 17]: 100
- Plant response rating, Nightshade (Nightshade [7]; Rate 62 g/ha, scale 0 to 100): 0
- Plant response rating, Nightshade (Nightshade [7]; Rate 125 g/ha; scale 0 to 100, 0 no effect, 100 complete control): 0
- Plant response rating, Nightshade (Nightshade [7]; [18]): 0
- Plant response rating, Barnyardgrass [8, 19]: 0
- Plant response rating, Barnyardgrass [8, 20]: 30
- Plant response rating, Corn (corn (Zea mays) [9]; [19]): 0
- Plant response rating, Corn (corn (Zea mays) [9]; [20]): 0
- Plant response rating, Wild Oat (wild oat (Avena fatua); [20]): 0
- Plant response rating, Wheat [10, 20]: 0
- Flatsedge plant response rating ([11]; Rate 250 g/ha): 100
- Flatsedge plant response rating ([11]; Rate 500 g/ha): 100
- Plant response rating, Flatsedge ([11]; Rate 62 g/ha): 90
- Plant response rating, Flatsedge ([11]; Rate 125 g/ha): 100
- Barnyardgrass plant response rating ([12]; Rate 250 g/ha): 100
- Barnyardgrass plant response rating ([12]; Rate 500 g/ha): 100
- Plant response rating, Barnyardgrass ([12]; Rate 62 g/ha): 70
- Plant response rating, Barnyardgrass ([12]; Rate 125 g/ha): 70
- Ducksalad plant response rating ([13]; Rate 250 g/ha): 100
- Ducksalad plant response rating ([13]; Rate 500 g/ha): 100
- Plant response rating, Ducksalad ([13]; Rate 62 g/ha): 70
- Plant response rating, Ducksalad ([13]; Rate 125 g/ha): 90
- Rice plant response rating (rice (Oryza saliva); Rate 250 g/ha): 70
- Rice plant response rating (rice (Oryza saliva); Rate 500 g/ha): 90
- Plant response rating, Rice (rice (Oryza saliva); Rate 62 g/ha): 0
- Plant response rating, Rice (rice (Oryza saliva); Rate 125 g/ha): 20
- Plant response rating, Sunflower (Sunflower; Rate 250 g/ha): 0
- Plant response rating (0 to 100), Nightshade (Nightshade [14]): 45

Compound: CC(C)Oc1cccc(N2CCC(n3ccc(C(C)(C)C)n3)C2=O)c1 (centres unmarked) [Compound 70]
- Plant response rating, Cupgrass, Woolly [1, 21]: 70
- Plant response rating, Cupgrass, Woolly [1, 22]: 0
- Plant response rating (0 to 100), Cupgrass, Woolly ([1]; preemergence, Rate 250 g/ha): 100
- Plant response rating (0 to 100), Cupgrass, Woolly ([1]; preemergence, Rate 500 g/ha): 100
- Plant response rating, Cupgrass, Woolly [1, 23]: 100
- Plant response rating, Corn (corn (Zea mays) [2]; [21]): 0
- Plant response rating, Corn (corn (Zea mays) [2]; [22]): 0
- Plant response rating (0 to 100), Corn (corn (Zea mays) [2]; preemergence, Rate 250 g/ha): 0
- Plant response rating (0 to 100), Corn (corn (Zea mays) [2]; preemergence, Rate 500 g/ha): 20
- Plant response rating, Corn (corn (Zea mays) [2]; [23]): 0
- Plant response rating, Nutsedge [3, 21]: 0
- Plant response rating, Nutsedge [3, 22]: 0
- Plant response rating (0 to 100), Nutsedge ([3]; preemergence): 0
- Plant response rating, Nutsedge [3, 23]: 0
- Plant response rating, Nutsedge [3, 17]: 0
- Plant response rating, Soybean (soybean (Glycine max); [22]): 0
- Plant response rating (0 to 100), Soybean (soybean (Glycine max); preemergence): 20
- Plant response rating, Soybean (soybean (Glycine max); [23]): 10
- Plant response rating, Soybean (soybean (Glycine max); [17]): 20
- Plant response rating, Pigweed [4, 22]: 0
- Plant response rating (0 to 100), Pigweed ([4]; preemergence): 100
- Plant response rating, Pigweed [4, 23]: 20
- Plant response rating, Pigweed [4, 17]: 0
- Plant response rating, Kochia (kochia (Kochia scoparia); [21]): 80
- Plant response rating, Kochia (kochia (Kochia scoparia); [22]): 0
- Plant response rating (0 to 100), Kochia (kochia (Kochia scoparia); preemergence, Rate 250 g/ha): 100
- Plant response rating (0 to 100), Kochia (kochia (Kochia scoparia); preemergence, Rate 500 g/ha): 100
- Plant response rating, Kochia (kochia (Kochia scoparia); [23]): 90
- Plant response rating, Johnsongrass [5, 21]: 0
- Plant response rating, Johnsongrass [5, 22]: 0
- Plant response rating (0 to 100), Johnsongrass ([5]; preemergence, Rate 250 g/ha): 50
- Plant response rating (0 to 100), Johnsongrass ([5]; preemergence, Rate 500 g/ha): 70
- Plant response rating, Johnsongrass [5, 23]: 10
- Plant response rating, Lambsquarters [6, 21]: 100
- Plant response rating (0 to 100), Lambsquarters ([6]; preemergence): 100
- Plant response rating, Lambsquarters [6, 23]: 100
- Plant response rating, Lambsquarters [6, 17]: 100
- Plant response rating, Nightshade (Nightshade [7]; Rate 31 g/ha, scale 0 to 100): 20
- Plant response rating, Nightshade (Nightshade [7]; Rate 62 g/ha; scale 0 to 100, 0 no effect, 100 complete control): 30
- Plant response rating, Nightshade (Nightshade [7]; [15]): 50
- Plant response rating, Nightshade (Nightshade [7]; [18]): 70
- Plant response rating, Barnyardgrass [8, 19]: 0
- Plant response rating, Barnyardgrass [8, 20]: 0
- Plant response rating, Corn (corn (Zea mays) [9]; [19]): 0
- Plant response rating, Corn (corn (Zea mays) [9]; [20]): 0
- Plant response rating, Wild Oat (wild oat (Avena fatua); [19]): 0
- Plant response rating, Wild Oat (wild oat (Avena fatua); [20]): 0
- Plant response rating, Wheat [10, 19]: 0
- Plant response rating, Wheat [10, 20]: 0
- Flatsedge plant response rating ([11]; Rate 250 g/ha): 90
- Flatsedge plant response rating ([11]; Rate 500 g/ha): 90
- Plant response rating, Flatsedge ([11]; Rate 62 g/ha): 90
- Barnyardgrass plant response rating ([12]; Rate 250 g/ha): 100
- Barnyardgrass plant response rating ([12]; Rate 500 g/ha): 100
- Plant response rating, Barnyardgrass ([12]; Rate 62 g/ha): 60
- Ducksalad plant response rating ([13]; Rate 250 g/ha): 100
- Ducksalad plant response rating ([13]; Rate 500 g/ha): 100
- Plant response rating, Ducksalad ([13]; Rate 62 g/ha): 100
- Rice plant response rating (rice (Oryza saliva); Rate 250 g/ha): 60
- Rice plant response rating (rice (Oryza saliva); Rate 500 g/ha): 90
- Plant response rating, Rice (rice (Oryza saliva); Rate 62 g/ha): 20
- Plant response rating, Sunflower (Sunflower; Rate 125 g/ha): 20
- Plant response rating, Sunflower (Sunflower; Rate 250 g/ha): 60
- Plant response rating (0 to 100), Nightshade (Nightshade [14]): 70
